The values that follow come from article PMC4791274, “Cerdulatinib, a novel dual SYK/JAK kinase inhibitor, has broad anti-tumor activity in both ABC and GCB types of diffuse large B cell lymphoma” (Oncotarget, 2015).

One experiment deals with p-SYK. In words: immunoblotting of p-SYK in BCR-stimulated DLBCL cell lines. The note with it: 3 μM, anti IgM/IgG stimulated, all five cell lines. Type of experiment: cell-based. On the procedure:
(§1) Immunoblotting were performed as previously described. Antibodies including total STAT3, SYK, PLCγ2, AKT, ERK1/2, PARP, caspase 3, and phosphorylated STAT3 (S727), STAT3 (Y705), SYK (Y525/526), PLCγ2 (Y759), PLCγ2 (Y1217), AKT (S473), ERK1/2 (Y204) and RB (S807/811) were purchased from Cell Signaling (Danvers, MA). Cyclin E antibody was purchased from Santa Cruz Biotechnology (Dallas, TX), and β-actin antibody was purchased from Sigma-Aldrich (St Louis, MO). Antibodies used in phosphoflow assay, including phosphorylated STAT3 (S727), SYK (Y525/526), PLCγ2 (Y759), AKT (S473), and ERK1/2 (Y204) were purchased from BD Biosciences (San Jose, CA).

The test system of the next experiment is LY18 cells. In words: PARP and caspase 3 cleavage, Western blotting. The experiment is classed as cell-based. The note with it: LY18, 48 h. Here is the method: as §1

The structures appear in SMILES notation.

For `CCS(=O)(=O)N1CCN(c2ccc(Nc3ncc(C(N)=O)c(NC4CC4)n3)cc2)CC1` [cerdulatinib], the p-SYK level entry in the experiment on p-SYK is on record as “significant reduction”. In the experiment with LY18 cells, the “PARP and caspase 3 cleavage” value is recorded as “little changes”.
